Source: paper PMC9090415, “Discovery of small molecule inhibitors of Plasmodium falciparum apicoplast DNA polymerase” (Journal of Enzyme Inhibition and Medicinal Chemistry, 2022)
pIC50: −log10 of the molar value.

Biological target: P. falciparum apicoplast DNA polymerase (Pf-apPOL) (Plasmodium falciparum, UniProt Q8ILY1)
Experiment: Fluorescence-based high-throughput DNA polymerase assay (molecular beacon), primary screen and dose-response;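 as to % inhibition ApPOL 90': test concentration in µM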;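 as to % inhibition apPOL 180': test concentration in µM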
Format: biochemical
Settings: for DNA Pol: unit not given, 90 min, 10 µM; for pIC50: supplemental file 2, sheet IC50 nontoxic compounds, Pf-apPOL
How it was run: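 Single-point screening used 10 µM compound with 20 nM polymerase, 20 nM hairpin substrate and 6 µM dNTPs for 90 min at 25 °C. Confirmatory titrations (2.5–80 µM) followed fluorescence at three times, and IC50 was derived from a fit including a cooperativity term n.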

P. falciparum apicoplast DNA polymerase (Pf-apPOL), sequence (Q8ILY1 entry or part of it): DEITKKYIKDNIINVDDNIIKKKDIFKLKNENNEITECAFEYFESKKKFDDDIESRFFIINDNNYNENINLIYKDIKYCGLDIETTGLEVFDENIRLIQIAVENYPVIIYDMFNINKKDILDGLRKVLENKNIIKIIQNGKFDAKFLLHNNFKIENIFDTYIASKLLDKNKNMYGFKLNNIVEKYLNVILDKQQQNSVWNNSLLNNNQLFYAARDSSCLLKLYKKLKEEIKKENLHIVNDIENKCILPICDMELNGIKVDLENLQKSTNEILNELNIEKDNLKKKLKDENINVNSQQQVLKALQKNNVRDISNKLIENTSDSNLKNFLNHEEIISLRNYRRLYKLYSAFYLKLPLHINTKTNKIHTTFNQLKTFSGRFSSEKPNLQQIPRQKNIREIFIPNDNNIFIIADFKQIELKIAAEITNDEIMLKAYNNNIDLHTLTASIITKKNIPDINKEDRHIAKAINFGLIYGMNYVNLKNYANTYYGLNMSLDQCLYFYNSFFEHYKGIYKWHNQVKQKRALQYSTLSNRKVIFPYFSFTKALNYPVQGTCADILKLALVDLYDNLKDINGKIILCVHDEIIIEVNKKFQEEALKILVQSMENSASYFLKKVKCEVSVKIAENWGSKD

For `CSC1=C(C#N)C(=C(C#N)C#N)NC(c2ccccc2)=N1` [Molecule 2, CSc1nc([nH]c(=C(C#N)C#N)c1C#N)c1ccccc1], the “DNA Pol” value ('DNA Pol' of the 186 hits list (primary screen result)) was 97, the “% inhibition Apo pol 10'” value (DRC-1, concentration 2.5) was 13.8022% and the “% inhibition Apo pol 10'” value (DRC-1, concentration 5) was 41.8918%. The “% inhibition Apo pol 10'” value (DRC-1, concentration 10) was 81.1404%, the “% inhibition Apo pol 10'” value (DRC-1, concentration 20) was 90.9481% and the “% inhibition Apo pol 10'” value (DRC-1, concentration 40) was 95.8628%. For the same compound, the “% inhibition Apo pol 10'” value (DRC-1, concentration 80) was 96.566%, the “% inhibition Apol 90'” value (DRC-1, concentration 2.5) was 8.793% and the “% inhibition Apol 90'” value (DRC-1, concentration 5) was 34.1727%. The “% inhibition Apol 90'” value (DRC-1, concentration 10) was 79.1809%, the “% inhibition Apol 90'” value (DRC-1, concentration 20) was 88.8682% and the “% inhibition Apol 90'” value (DRC-1, concentration 40) was 93.6444%. For the same compound, the “% inhibition Apol 90'” value (DRC-1, concentration 80) was 97.3798%, the “% inhibition apPOL 180'” value (DRC-1, concentration 2.5) was 3.214% and the “% inhibition apPOL 180'” value (DRC-1, concentration 5) was 23.1824%. The “% inhibition apPOL 180'” value (DRC-1, concentration 10) was 72.8695%, the “% inhibition apPOL 180'” value (DRC-1, concentration 20) was 86.4873% and the “% inhibition apPOL 180'” value (DRC-1, concentration 40) was 92.4303%. For the same compound, the “% inhibition apPOL 180'” value (DRC-1, concentration 80) was 97.316%, the “% inhibition Apo pol 5'” value (DRC-2, concentration 2.5) was 8% and the “% inhibition Apo pol 5'” value (DRC-2, concentration 5) was 21%. The “% inhibition Apo pol 5'” value (DRC-2, concentration 10) was 38%, the “% inhibition Apo pol 5'” value (DRC-2, concentration 20) was 53% and the “% inhibition Apo pol 5'” value (DRC-2, concentration 40) was 57%. For the same compound, the “% inhibition Apo pol 5'” value (DRC-2, concentration 80) was 60%, the “% inhibition Apol 40'” value (DRC-2, concentration 5) was 25% and the “% inhibition Apol 40'” value (DRC-2, concentration 10) was 47%. For the same compound, the “% inhibition Apol 40'” value (DRC-2, concentration 20) was 65%, the “% inhibition Apol 40'” value (DRC-2, concentration 40) was 69% and the “% inhibition Apol 40'” value (DRC-2, concentration 80) was 76%. The “% inhibition ApPOL 90'” value (DRC-2, concentration 2.5) was 9%, the “% inhibition ApPOL 90'” value (DRC-2, concentration 5) was 22% and the “% inhibition ApPOL 90'” value (DRC-2, concentration 10) was 46%. For the same compound, the “% inhibition ApPOL 90'” value (DRC-2, concentration 20) was 66%, the “% inhibition ApPOL 90'” value (DRC-2, concentration 40) was 70% and the “% inhibition ApPOL 90'” value (DRC-2, concentration 80) was 79%. For the same compound, the “% inhibition apPOL 180'” value (DRC-2, concentration 2.5) was 2.48%, the “% inhibition apPOL 180'” value (DRC-2, concentration 5) was 13% and the “% inhibition apPOL 180'” value (DRC-2, concentration 10) was 36%. For the same compound, the “% inhibition apPOL 180'” value (DRC-2, concentration 20) was 61%, the “% inhibition apPOL 180'” value (DRC-2, concentration 40) was 67% and the “% inhibition apPOL 180'” value (DRC-2, concentration 80) was 80%. For the same compound, the “DNA Pol” value (primary screen value of the library well) was 97.

For `CSC1=C(C#N)C(=C(C#N)C#N)NC(c2ccccc2)=N1` [Molecule 2], the pIC50 was 5.25.

Compound `O=C1N=C(Nc2cccc(Cl)c2Cl)S/C1=C\c1ccco1` [Molecule 3] has a pIC50 of 5.30.
